According to publication PMC4138103 (PLoS ONE, 2014):

Test system: Sprague-Dawley rats
Assay: Hematology
Type: in vivo, Rattus norvegicus
Set-up: key to Dose response, MCH / Dose response, MCHC / Dose response, PLT / Dose response, MCV: D: significant dose response (for results, see Table 2); T: significant trend; HCT, Hematocrit: unit not given here
Details: for RBC, Red cell count / HCT, Hematocrit / Basophils / Eosinophils / HB, Hemoglobin / Lymphocytes / MCH, Mean corpuscular hemoglobin / MCHC, Mean corpuscular hemoglobin concentration / MCV, Mean corpuscular volume / MPV, Mean platelet volume / Monocytes / Neutrophils / PDW, Platelet distribution width / PLT, Platelet count / WBC, Leukocyte total count: group mean; for RBC, CED: adipose tissue concentration based
Method: Basic blood picture analysis was carried out using Advia 120 analyzer (Bayer, later Siemens Diagnostic Division, Dublin, Ireland). This analysis includes red cell count (RBC), hemoglobin (HB), hematocrit (HCT), platelet count (PLT), leukocyte total count (WBC) and differential count as well as the calculated red cell and platelet parameters mean corpuscular volume (MCV), mean corpuscular hemoglobin (MCH), mean corpuscular hemoglobin concentration (MCHC), red cell distribution width - standard deviation (RDW-SD), platelet distribution width (PDW) and mean platelet volume (MPV). Blood cell counting is based on isovolumetric sphering and fixing the cells, stains and light scattering. Visual leukocyte differential counting was done after May-Grünwald-Giemsa staining.
Data were also analyzed using the BMD method, which is based on dose-response modeling of the full data set using a nested family of exponential and Hill models. The analyses were done on data of males and females combined, using sex as a covariate. […] In that case, different Critical Effect Doses (CEDs) and CEDs at the lowest bound of the confidence interval (CED-L) were generated for each sex. If no difference between sexes is detected, a CED and CED-Ls for the combined data is generated. However, this was also done if the curve fits are close, and separate analyses for males and females were then performed manually. CEDs and CED-Ls were calculated at the predefined Critical Effect Size (CES) of 5% (EFSA standard) or 10%.

[1] = females, total doses 0-1700 mg/kg bw
[2] = females, CES 5%, total dose based
[3] = females, CES 10%, total dose based
[4] = males, total dose 3 mg/kg bw, N=5
[5] = males, total dose 10 mg/kg bw, N=5
[6] = males, total dose 30 mg/kg bw, N=5
[7] = males, total dose 100 mg/kg bw, N=5
[8] = males, total dose 300 mg/kg bw, N=5
[9] = males, total dose 300 mg/kg bw, N=5, p<0.01 vs. control
[10] = males, total dose 1000 mg/kg bw, N=5
[11] = males, total dose 1000 mg/kg bw, N=5, p<0.001 vs. control
[12] = males, total dose 1700 mg/kg bw, N=5
[13] = males, total dose 1700 mg/kg bw, N=5, p<0.001 vs. control
[14] = males, total doses 0-1700 mg/kg bw
[15] = males, CES 5%, total dose based
[16] = males, CES 10%, total dose based

Clc1cc(Cl)c(-c2cc(Cl)c(Cl)c(Cl)c2Cl)cc1Cl [PCB 180, 2,2′,3′,4,4′,5,5′-heptachlorobiphenyl]
RBC, Red cell count (females, total dose 1700 mg/kg bw, N=5, p<0.001 vs. control): 6.43e+12 L⁻¹
HCT, Hematocrit (females, total dose 1700 mg/kg bw, N=5, p<0.01 vs. control): 0.41
Dose response, HB [1]: D, T
Dose response, HCT [1]: D, T
Dose response, MCV [1]: T
Dose response, RBC [1]: D, T
Hematocrit, CED [2]: 832 mg/kg bw
Hematocrit, CED-L [2]: 646 mg/kg bw
Hemoglobin, CED [2]: 739 mg/kg bw
Hemoglobin, CED-L [2]: 600 mg/kg bw
Red blood cell count, CED [2]: 638 mg/kg bw
Red blood cell count, CED-L [2]: 514 mg/kg bw
Red cell distribution width - SD, CED [2]: 1400 mg/kg bw
Red cell distribution width - SD, CED-L [2]: 1093 mg/kg bw
Hematocrit, CED [3]: 1710 mg/kg bw
Hematocrit, CED-L [3]: 1327 mg/kg bw
Hemoglobin, CED [3]: 1520 mg/kg bw
Hemoglobin, CED-L [3]: 1233 mg/kg bw
Red blood cell count, CED [3]: 1310 mg/kg bw
Red blood cell count, CED-L [3]: 1056 mg/kg bw
Red cell distribution width - SD, CED [3]: 1650 mg/kg bw
Red cell distribution width - SD, CED-L [3]: 1498 mg/kg bw
RBC, CED (females): 4170 µg/g lipid
Basophils [4]: 0.0%
Eosinophils [4]: 0.6%
HB, Hemoglobin [4]: 179 g/L
HCT, Hematocrit [4]: 0.52
Lymphocytes [4]: 87%
MCH, Mean corpuscular hemoglobin [4]: 21.9 pg
MCHC, Mean corpuscular hemoglobin concentration [4]: 346 g/L
MCV, Mean corpuscular volume [4]: 63.4 fL
MPV, Mean platelet volume [4]: 7.16 fL
Monocytes [4]: 4.4%
Neutrophils [4]: 8.0%
PDW, Platelet distribution width [4]: 7.66 fL
PLT, Platelet count [4]: 8.36e+11 L⁻¹
RBC, Red cell count [4]: 8.18e+12 L⁻¹
WBC, Leukocyte total count [4]: 1.896e+10 L⁻¹
Basophils [5]: 0.2%
Eosinophils [5]: 0.6%
HB, Hemoglobin [5]: 171 g/L
HCT, Hematocrit [5]: 0.49
Lymphocytes [5]: 84.6%
MCH, Mean corpuscular hemoglobin [5]: 22.02 pg
MCHC, Mean corpuscular hemoglobin concentration [5]: 350 g/L
MCV, Mean corpuscular volume [5]: 63.0 fL
MPV, Mean platelet volume [5]: 6.96 fL
Monocytes [5]: 4.4%
Neutrophils [5]: 10.2%
PDW, Platelet distribution width [5]: 7.54 fL
PLT, Platelet count [5]: 8.27e+11 L⁻¹
RBC, Red cell count [5]: 7.79e+12 L⁻¹
WBC, Leukocyte total count [5]: 1.674e+10 L⁻¹
Basophils [6]: 0.0%
Eosinophils [6]: 0.6%
HB, Hemoglobin [6]: 170 g/L
HCT, Hematocrit [6]: 0.49
Lymphocytes [6]: 87.8%
MCH, Mean corpuscular hemoglobin [6]: 22 pg
MCHC, Mean corpuscular hemoglobin concentration [6]: 349 g/L
MCV, Mean corpuscular volume [6]: 63.1 fL
MPV, Mean platelet volume [6]: 6.92 fL
Monocytes [6]: 4.2%
Neutrophils [6]: 7.4%
PDW, Platelet distribution width [6]: 7.44 fL
PLT, Platelet count [6]: 8.6e+11 L⁻¹
RBC, Red cell count [6]: 7.73e+12 L⁻¹
WBC, Leukocyte total count [6]: 1.7e+10 L⁻¹
Basophils [7]: 0.0%
Eosinophils [7]: 0.6%
HB, Hemoglobin [7]: 170 g/L
HCT, Hematocrit [7]: 0.48
Lymphocytes [7]: 87.8%
MCH, Mean corpuscular hemoglobin [7]: 22.18 pg
MCHC, Mean corpuscular hemoglobin concentration [7]: 352 g/L
MCV, Mean corpuscular volume [7]: 63.1 fL
MPV, Mean platelet volume [7]: 7.28 fL
Monocytes [7]: 4.4%
Neutrophils [7]: 7.2%
PDW, Platelet distribution width [7]: 7.90 fL
PLT, Platelet count [7]: 8.93e+11 L⁻¹
RBC, Red cell count [7]: 7.65e+12 L⁻¹
WBC, Leukocyte total count [7]: 1.654e+10 L⁻¹
Basophils [8]: 0.0%
Eosinophils [8]: 1.0%
HB, Hemoglobin [8]: 165 g/L
Lymphocytes [8]: 85.8%
MCH, Mean corpuscular hemoglobin [8]: 22.38 pg
MCHC, Mean corpuscular hemoglobin concentration [8]: 351 g/L
MCV, Mean corpuscular volume [8]: 63.8 fL
MPV, Mean platelet volume [8]: 7.12 fL
Monocytes [8]: 5.2%
Neutrophils [8]: 8.0%
PDW, Platelet distribution width [8]: 7.66 fL
PLT, Platelet count [8]: 9.4e+11 L⁻¹
WBC, Leukocyte total count [8]: 2.076e+10 L⁻¹
HCT, Hematocrit [9]: 0.47
RBC, Red cell count [9]: 7.38e+12 L⁻¹
Basophils [10]: 0.0%
Eosinophils [10]: 1.0%
Lymphocytes [10]: 86.8%
MCH, Mean corpuscular hemoglobin [10]: 22.94 pg
MCV, Mean corpuscular volume [10]: 63.2 fL
MPV, Mean platelet volume [10]: 7.04 fL
Monocytes [10]: 3.6%
Neutrophils [10]: 8.6%
PDW, Platelet distribution width [10]: 7.60 fL
PLT, Platelet count [10]: 8.85e+11 L⁻¹
WBC, Leukocyte total count [10]: 1.798e+10 L⁻¹
HCT, Hematocrit [11]: 0.44
RBC, Red cell count [11]: 6.99e+12 L⁻¹
MCHC, Mean corpuscular hemoglobin concentration (males, total dose 1000 mg/kg bw, N=5, p<0.01 vs. control): 364 g/L
HB, Hemoglobin (males, total dose 1000 mg/kg bw, N=5, p<0.05 vs. control): 161 g/L
Basophils [12]: 0.4%
Eosinophils [12]: 0.4%
Lymphocytes [12]: 87.2%
MCH, Mean corpuscular hemoglobin [12]: 22.78 pg
MCHC, Mean corpuscular hemoglobin concentration [12]: 355 g/L
MCV, Mean corpuscular volume [12]: 64.2 fL
MPV, Mean platelet volume [12]: 7.08 fL
Monocytes [12]: 5.4%
Neutrophils [12]: 6.6%
PDW, Platelet distribution width [12]: 7.54 fL
PLT, Platelet count [12]: 9.37e+11 L⁻¹
WBC, Leukocyte total count [12]: 1.68e+10 L⁻¹
HCT, Hematocrit [13]: 0.45
RBC, Red cell count [13]: 6.99e+12 L⁻¹
HB, Hemoglobin (males, total dose 1700 mg/kg bw, N=5, p<0.01 vs. control): 159 g/L
Dose response, HB [14]: D, T
Dose response, HCT [14]: D, T
Dose response, MCH [14]: T
Dose response, MCHC [14]: T
Dose response, PLT [14]: T
Dose response, RBC [14]: D, T
Hematocrit, CED [15]: 140 mg/kg bw
Hematocrit, CED-L [15]: 66.3 mg/kg bw
Hemoglobin, CED [15]: 201 mg/kg bw
Hemoglobin, CED-L [15]: 62.8 mg/kg bw
Platelet count, CED [15]: 40.7 mg/kg bw
Platelet count, CED-L [15]: 9.68 mg/kg bw
Red blood cell count, CED [15]: 138 mg/kg bw
Red blood cell count, CED-L [15]: 82.2 mg/kg bw
Hematocrit, CED [16]: 481 mg/kg bw
Platelet count, CED [16]: 143 mg/kg bw
Red blood cell count, CED [16]: 436 mg/kg bw
Red blood cell count, CED-L [16]: 252 mg/kg bw
RBC, CED (males): 598 µg/g lipid
